From PubChem BioAssay AID1259411 (Chemical Carcinogenesis Research Information System (CCRIS), 2018)
Active and inactive are the calls of the source. The rule behind the calls is not given here.

Test system: rodent carcinogenicity bioassays, tumor incidence
Test: CCRIS carcinogenicity studies
Method in brief: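 Archive of carcinogenicity, mutagenicity, tumor promotion and tumor inhibition results drawn from journals, NCI reports and other sources, expert-reviewed; covers 1985-2011 and is no longer updated.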

**Q.** How did the carcinogen call (Species: MOUSE, Strain/Sex: B6C3F1/FEMALE, Route: ORAL, Dose: 0, 200, 400 PPM IN DIET FOR 104 WK (STUDY DURATION: 104 WK), Dose: 0, 200, 400 PPM IN DIET FOR 104 WK (STUDY DURATION: 104 WK), Tumor Site: Type of Lesion: LIVER: HEPATOCELLULAR CARCINOMA) turn out when `Nc1ccc2cc3ccc(N)cc3nc2c1` was run?
**A.** equivocal

**Q.** What about the carcinogen call (Species: MOUSE, Strain/Sex: B6C3F1/MALE, Route: ORAL, Dose: 0, 200, 400 PPM IN DIET FOR 104 WK (STUDY DURATION: 104 WK), Dose: 0, 200, 400 PPM IN DIET FOR 104 WK (STUDY DURATION: 104 WK), Tumor Site: Type of Lesion: LIVER: HEPATOCELLULAR CARCINOMA) of the same molecule?
**A.** equivocal

**Q.** And the carcinogen call (Species: RAT, Strain/Sex: F344/FEMALE, Route: ORAL, Dose: 0, 300, 600 PPM IN DIET, Dose: 0, 300, 600 PPM IN DIET)?
**A.** inactive; negative

**Q.** What about the carcinogen call (Species: RAT, Strain/Sex: F344/MALE, Route: ORAL, Dose: 0, 300, 600 PPM IN DIET FOR 109 WK (STUDY DURATION: 109 WK), Dose: 0, 300, 600 PPM IN DIET FOR 109 WK (STUDY DURATION: 109 WK), Tumor Site: Type of Lesion: INTESTINE: LEIOMYOSARCOMA OR ADENOCARCINOMA OR SARCOMA) of the same molecule?
**A.** equivocal

**Q.** With `CC(=O)C(N=Nc1ccc(-c2ccc(N=NC(C(C)=O)C(=O)Nc3ccccc3)c(Cl)c2)cc1Cl)C(=O)Nc1ccccc1` (stereo unspecified) as the molecule, how does the carcinogen call (Species: MOUSE, Strain/Sex: B6C3F1/FEMALE, Route: ORAL, Dose: 0, 2.5, 5% OF DIET, Dose: 0, 2.5, 5% OF DIET) read?
**A.** inactive; negative

**Q.** What about the carcinogen call (Species: MOUSE, Strain/Sex: B6C3F1/MALE, Route: ORAL, Dose: 0, 2.5, 5% OF DIET, Dose: 0, 2.5, 5% OF DIET) of the same molecule?
**A.** inactive; negative

**Q.** What about the carcinogen call (Species: RAT, Strain/Sex: F344/FEMALE, Route: ORAL, Dose: 0, 2.5, 5% OF DIET, Dose: 0, 2.5, 5% OF DIET) of the same molecule?
**A.** inactive; negative

**Q.** And the carcinogen call (Species: RAT, Strain/Sex: F344/MALE, Route: ORAL, Dose: 0, 2.5, 5% OF DIET, Dose: 0, 2.5, 5% OF DIET)?
**A.** inactive; negative

**Q.** Which carcinogen call (Species: RAT, Strain/Sex: F344/FEMALE, Route: ORAL, Dose: 0.1% IN DIET FOR 2 YR) does the source give for `Brc1cc(Br)c2cccnc2c1` here?
**A.** inactive; negative

**Q.** What does the source list for `COc1cc(OC)nc(Oc2cccc(Oc3nc(OC)cc(OC)n3)c2C(=O)O)n1`?
**A.** carcinogen call (Species: Mouse, Strain/Sex: B6C3F1/Female (50/sex/dose), Route: Oral, Dose: 0, 10, 100, 2500, 5000 ppm in diet for 104 wk, Dose: 0, 10, 100, 2500, 5000 ppm in diet for 104 wk): inactive; negative; purity 98.4%; interim sacrifices of 10 additional animals/sex/dose at; carcinogen call (Species: Mouse, Strain/Sex: B6C3F1/Male (50/sex/dose), Route: Oral, Dose: 0, 10, 100, 2500, 5000 ppm in diet for 104 wk, Dose: 0, 10, 100, 2500, 5000 ppm in diet for 104 wk): inactive; negative; purity 98.4%; interim sacrifices of 10 additional animals/sex/dose at; carcinogen call (Species: Rat, Strain/Sex: F344/Female (48/sex/dose), Route: Oral, Dose: 0, 20, 200, 3000, 10000 ppm in diet for 104 wk, Dose: 0, 20, 200, 3000, 10000 ppm in diet for 104 wk): inactive; negative; purity 97.2%; interim sacrifices of 10 additional animals/sex/dose at; carcinogen call (Species: Rat, Strain/Sex: F344/Male (48/sex/dose), Route: Oral, Dose: 0, 20, 200, 3500, 7000 ppm in diet for 104 wk, Dose: 0, 20, 200, 3500, 7000 ppm in diet for 104 wk): inactive; negative; purity 97.2%; interim sacrifices of 10 additional animals/sex/dose at

**Q.** Which carcinogen call (Species: MOUSE, Strain/Sex: B6C3F1/FEMALE, Route: INTRAPERITONEAL, Dose: 0, 0.3 UMOL/G IN TRIOCTANOIN ONCE ON DAY 1 FOLLOWED BY 0.4 UMOL/G ONCE ON DAY 8, 15 AND 22 (STUDY DURATION: 10 MO)) does the source give for `CNc1ccc(N=Nc2ccccc2)cc1` here?
**A.** inactive; negative

**Q.** And the carcinogen call (Species: MOUSE, Strain/Sex: B6C3F1/MALE, Route: INTRAPERITONEAL, Dose: 0, 0.017, 0.05, 0.15, 0.45 UMOL/G ONCE IN TRIOCTANOIN (STUDY DURATION: 10 MO), Dose: 0, 0.017, 0.05, 0.15, 0.45 UMOL/G ONCE IN TRIOCTANOIN (STUDY DURATION: 10 MO), Tumor Site: Type of Lesion: LIVER: HEPATOMA)?
**A.** active; positive

**Q.** And the carcinogen call (Species: MOUSE, Strain/Sex: B6C3F1/MALE, Route: INTRAPERITONEAL, Dose: 0, 0.3 UMOL/G IN TRIOCTANOIN ONCE ON DAY 1 FOLLOWED BY 0.4 UMOL/G ONCE ON DAY 8, 15 AND 22 (STUDY DURATION: 10 MO), Tumor Site: Type of Lesion: LIVER: HEPATOMA)?
**A.** active; positive

**Q.** What about the carcinogen call (Species: MOUSE, Strain/Sex: C3H/MALE, Route: INTRAPERITONEAL, Dose: 0, 0.45 UMOL/G ONCE IN TRIOCTANOIN (STUDY DURATION: 11 MO), Tumor Site: Type of Lesion: LIVER: HEPATOMA) of the same molecule?
**A.** active; positive

**Q.** What about the carcinogen call (Species: MOUSE, Strain/Sex: C57BL/MALE, Route: INTRAPERITONEAL, Dose: 0, 0.45 UMOL/G ONCE IN TRIOCTANOIN (STUDY DURATION: 11 MO), Tumor Site: Type of Lesion: LIVER: HEPATOMA) of the same molecule?
**A.** active; positive

**Q.** What about the carcinogen call (Species: RAT, Strain/Sex: F344/MALE, Route: INTRAPERITONEAL, Dose: 0, 0.3 UMOL/G IN TRIOCTANOIN ONCE ON DAY 1 FOLLOWED BY 0.4 UMOL/G ONCE ON DAY 8, 15 AND 22 (STUDY DURATION: 24 MO), Tumor Site: Type of Lesion: LIVER: HEPTOCELLULAR CARCINOMA) of the same molecule?
**A.** active; positive

**Q.** And the carcinogen call (Species: RAT, Strain/Sex: SHERMAN, Route: ORAL, Dose: 0.056% IN DIET FOR 132 TO 250 D, Tumor Site: Type of Lesion: LIVER: HEPATOMA)?
**A.** active; positive

**Q.** And the carcinogen call (Species: RAT, Strain/Sex: SPRAGUE-DAWLEY/MALE, Route: ORAL, Dose: 0.056% IN DIET FOR 4 MO, Tumor Site: Type of Lesion: LIVER: HEPATOMA)?
**A.** active; positive
